Measured values as given in patent publication US11944623B2, “Modulators of Kv3 channels to treat pain” (Autifony Therapeutics Limited, priority 2015, dated 2024).

Target: T1, Human Kv3.4 channels (Homo sapiens, UniProt Q03721)
T1 construct: expressed in transfected cells
T1 sequence (Q03721 1-635): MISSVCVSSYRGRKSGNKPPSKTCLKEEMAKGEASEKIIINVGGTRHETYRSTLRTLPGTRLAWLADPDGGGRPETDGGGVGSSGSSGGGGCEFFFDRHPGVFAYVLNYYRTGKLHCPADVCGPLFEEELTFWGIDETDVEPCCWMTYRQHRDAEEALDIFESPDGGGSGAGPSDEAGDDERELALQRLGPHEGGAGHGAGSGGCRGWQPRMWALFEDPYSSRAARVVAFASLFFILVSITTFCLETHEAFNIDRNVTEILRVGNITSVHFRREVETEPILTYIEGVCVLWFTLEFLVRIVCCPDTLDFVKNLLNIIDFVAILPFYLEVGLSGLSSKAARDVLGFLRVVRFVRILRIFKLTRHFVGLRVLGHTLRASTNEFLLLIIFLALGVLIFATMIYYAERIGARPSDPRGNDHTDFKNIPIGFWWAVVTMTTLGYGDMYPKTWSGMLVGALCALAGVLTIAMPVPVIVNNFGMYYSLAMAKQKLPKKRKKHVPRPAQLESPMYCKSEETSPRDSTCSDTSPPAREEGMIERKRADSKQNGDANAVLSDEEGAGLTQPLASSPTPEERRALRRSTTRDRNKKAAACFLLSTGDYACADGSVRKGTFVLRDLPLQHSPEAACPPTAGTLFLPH
Assay: Kv3.4 Assay 2 (QPatch, HEK293)
Type: cell-based
Set-up: dose or concentration left out as unconfirmed
Conditions: for reduction in peak Kv3.4 current: peak currents did not recover to baseline on washout
Description: Human Kv3.4 channels were stably expressed in a HEK293 cell line. Cells were used within 1-4 hours of cell preparation and internal and external physiological solutions were freshly prepared prior to the assay. Electrophysiological recordings were made using an automated patch clamp platform (QPatch, Sophion Biosciences). The extracellular solution contained 145 mM NaCl, 4 mM KCl, 2 mM CaCl2, 1 mM MgCl2, 10 mM HEPES and 10 mM glucose; the pH was adjusted to 7.4 with NaOH, and the osmolarity measured as 313 mOsm/L. A low potassium intracellular solution was used which contained 135.6 mM CsCl, 5.37 mM CaCl2, 1.75 mM MgCl2, 10 mM EGTA, 15.6 mM KOH, 4 mM Na2ATP and 10 mM HEPES; the pH was adjusted to 7.2 with CsOH, and the osmolarity measured as 303 mOsm/L.
The voltage dependence of inactivation of the homomeric hKv3.4 channels was tested using a protocol that consisted of a series of two square voltage pulses. The pulse one (P1=pre-pulse) was 1000 ms long and was immediately followed by a second pulse (P2=test pulse) which was 500 ms long. Pulse one varied between the holding potential of −60 mV to +40 mV and pulse two stepped from a holding potential of −60 to +40 mV before returning to the holding potential of −60 mV.
Steady-state voltage-activation and -inactivation curves were fitted with single Boltzmann function in which G/Gmax was obtained from normalized current amplitude and the V50 represent the half-activation or inactivation voltage.
The time constants of the inactivation phase of the hKv3.4 currents were derived from a mono (τ) or a double (τ1 and τ2) standard exponential fit to peak trace pulse from −80 mV to +60 mV.
The time-course of effect of the compounds against the hKv3.4 potassium channel was measured with repetitive voltage pulses from a holding potential of −60 mV, with pulses of 500 ms duration every 5 s to +40 mV.
One concentration (10 uM) of the test compounds was assessed during the activation, inactivation and peak pulse protocols. The protocol was applied with addition of physiological solution (control period), followed by 10 uM of the testing compound and a 10 mM of the standard blocker TEA.
Data were normalized using the baseline current control values as top of the curve (maximum current; 1.0) and the zero potassium current as the bottom of the curve (minimum current; 0.0).
Series resistance and quality of seals were monitored during the experiments. Analysis was performed using the Sophion QPatch Assay Software (version 5.2).
Stock solutions (10 mM) of the standard blockers TEA was prepared in fresh physiological solution prior to testing on the e-phys automated platform. The test compounds were prepared in 10 mM DMSO stock and then diluted 1 in 1000 in physiological solution.

Structure (SMILES): Cc1ccc(Oc2ncc(N3C(=O)NC(C)(C)C3=O)cn2)c2c1OCC21CC1 [Compound 1, 5,5-dimethyl-3-[2-(7-methylspiro[2H-benzofuran-3,1′-cyclopropane]-4-yl)oxypyrimidin-5-yl]imidazolidine-2,4-dione]
- potentiation of the observed Kv3.4 current: did not potentiate
- shift in the voltage-dependence of activation of the Kv3.4 currents: did not produce any notable shift
- reduction in peak Kv3.4 current: 40±5%

Structure (SMILES): CC[C@@]1(C)NC(=O)N(c2cnc(Oc3ccc(C)c(OC(F)(F)F)c3)nc2)C1=O [Compound 2, (5R)-5-ethyl-5-methyl-3-[2-({4-methyl-3-[(trifluoromethyl)oxy]phenyl}oxy)-5-pyrimidinyl]-2,4-imidazolidinedione]
- potentiation of the observed Kv3.4 current: did not potentiate
- shift in the voltage-dependence of activation of the Kv3.4 currents: did not produce any notable shift
- reduction in peak Kv3.4 current: 45.4±4%

Structure (SMILES): Cc1ccc(Oc2ccc(-n3c(C)n[nH]c3=O)cn2)c2c1OCC21CC1 [Compound 3, 5-methyl-4-{6-[(7-methylspiro[1-benzofuran-3,1′-cyclopropan]-4-yl)oxy]pyridin-3-yl}-2,4-dihydro-3H-1,2,4-triazol-3-one]
- potentiation of the observed Kv3.4 current: did not potentiate
- shift in the voltage-dependence of activation of the Kv3.4 currents: did not produce any notable shift
- reduction in peak Kv3.4 current: 36±3%

Structure (SMILES): CC[C@H]1NC(=O)N(c2ccc(Oc3ccc(C)c4c3C3(CC3)CO4)nc2)C1=O [Compound 4, (5R)-5-ethyl-3-[6-(7-methylspiro[2H-benzofuran-3,1′-cyclopropane]-4-yl)oxy-3-pyridyl]imidazolidine-2,4-dione]
- potentiation of the observed Kv3.4 current: did not potentiate
- shift in the voltage-dependence of activation of the Kv3.4 currents: did not produce any notable shift
- reduction in peak Kv3.4 current: 50.0±4%
